According to patent US7772241B2, “Variolin derivatives and their use as antitumor agents” (Pharma Mar S.A., priority 2001, dated 2010):
Like-named read-outs stand apart in the source and are kept apart here.

Assays:
DU-145 = assay: Inhibition of cells growth by colorimetric (SRB) assay, DU-145; conditions: for GI50 / CC50: Homo sapiens, DU-145, 48 h; for GI50: read-out: DU-145 GI50, SRB assay, 48 hours exposure; for CC50: read-out: DU-145 LC50, SRB assay, 48 hours exposure; for DU-145 TGI: SRB assay, 48 hours exposure
How it was run: (§1)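 Read-out is sulforhodamine B protein stain (OD 490 nm) after cold TCA fixation, following 48 h continuous exposure to samples spanning 10 to 10^−8 μg/ml.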

HT-29 = assay: Inhibition of cells growth by colorimetric (SRB) assay, HT-29; conditions: for GI50 / CC50: Homo sapiens, HT-29, 48 h
How it was run: as §1

A-549 = assay: Inhibition of cells growth by colorimetric (SRB) assay, A-549; conditions: for GI50 / CC50: Homo sapiens, A549, 48 h
How it was run: as §1

LoVo-Dox = assay: Inhibition of cells growth by colorimetric (SRB) assay, LoVo-Dox; conditions: for GI50 / CC50: Homo sapiens, 48 h; for GI50: read-out: LOVO-DOX GI50, SRB assay, 48 hours exposure; for CC50: read-out: LOVO-DOX LC50, SRB assay, 48 hours exposure; for LOVO-DOX TGI: SRB assay, 48 hours exposure
How it was run: as §1

HeLa = assay: Inhibition of cells growth by colorimetric (SRB) assay, HeLa; conditions: for GI50: Homo sapiens, HeLa, 48 h, read-out: HELA GI50, SRB assay, 48 hours exposure; for HELA TGI: SRB assay, 48 hours exposure
Excerpt: (§2) The finality of these assays is to interrupt the growth of a “in vitro” tumor cell culture by means a continued exhibition of the cells to the sample to be testing.
(§3) This form of the assay employs 96 well cell culture microplates of 9 mm diameter (Faircloth, 1988; Mosmann, 1983). Most of the cell lines are obtained from American Type Culture Collection (ATCC) derived from different human cancer types.
(§4) Cells are maintained in RPMI 1640 10% FBS, supplemented with 0.1 g/l penicillin and 0.1 g/l streptomycin sulphate and then incubated at 37° C., 5% CO2 and 98% humidity. For the experiments, cells were harvested from subconfluent cultures using trypsin and resuspended in fresh medium before plating.
(§5) Cells are seeded in 96 well microtiter plates, at 5×10^3 cells per well in aliquots of 195 μl medium, and they are allowed to attach to the plate surface by growing in drug free medium for 18 hours. Afterward, samples are added in aliquots of 5 μl in a ranging from 10 to 10^−8 μg/ml, dissolved in DMSO/EtOH/PBS (0.5:0.5:99). After 48 hours exposure, the antitumor effect are measured by the SRB methodology: cells are fixed by adding 50 μl of cold 50% (wt/vol) trichloroacetic acid (TCA) and incubating for 60 minutes at 4° C. Plates are washed with deionized water and dried. One hundred μl of SRB solution (0.4% wt/vol in 1% acetic acid) is added to each microtiter well and incubated for 10 minutes at room temperature. Unbound SRB is removed by washing with 1% acetic acid. Plates are air dried and bound stain is solubilized with Tris buffer. Optical densities are read on a automated spectrophotometric plate reader at a single wavelength of 490 nm.
(§6) The values for mean +/−SD of data from triplicate wells are calculated. Some parameters for cellular responses can be calculated: GI=growth inhibition, TGI=total growth inhibition (cytostatic effect) and LC=cell killing (cytotoxic effect).

LNCaP = assay: Inhibition of cells growth by colorimetric (SRB) assay, LNCaP; conditions: for GI50 / CC50: Homo sapiens, LNCaP, 48 h; for GI50: read-out: LN-caP GI50, SRB assay, 48 hours exposure; for CC50: read-out: LN-caP LC50, SRB assay, 48 hours exposure; for LN-caP TGI: SRB assay, 48 hours exposure
How it was run: as §1

IGROV-ET = assay: Inhibition of cells growth by colorimetric (SRB) assay, IGROV-ET; conditions: for GI50 / CC50: Homo sapiens, 48 h; for GI50: read-out: IGROV-ET GI50, SRB assay, 48 hours exposure; for CC50: read-out: IGROV-ET LC50, SRB assay, 48 hours exposure; for IGROV-ET TGI: SRB assay, 48 hours exposure
How it was run: as §1

SK-MEL-28 = assay: Inhibition of cells growth by colorimetric (SRB) assay, SK-MEL-28; conditions: for GI50 / CC50: Homo sapiens, SK-MEL-28, 48 h; for GI50: read-out: MEL-28 GI50, SRB assay, 48 hours exposure; for CC50: read-out: MEL-28 LC50, SRB assay, 48 hours exposure; for MEL-28 TGI: SRB assay, 48 hours exposure
How it was run: as §1

SK-BR-3 = assay: Inhibition of cells growth by colorimetric (SRB) assay, SK-BR-3; conditions: for GI50 / CC50: Homo sapiens, SK-BR-3, 48 h; for GI50: read-out: SK-BR-3 GI50, SRB assay, 48 hours exposure; for CC50: read-out: SK-BR-3 LC50, SRB assay, 48 hours exposure; for SK-BR-3 TGI: SRB assay, 48 hours exposure
How it was run: as §1

PANC-1 = assay: Inhibition of cells growth by colorimetric (SRB) assay, PANC-1; conditions: for GI50 / CC50: Homo sapiens, PANC-1, 48 h; for GI50: read-out: PANC-1 GI50, SRB assay, 48 hours exposure; for CC50: read-out: PANC-1 LC50, SRB assay, 48 hours exposure; for PANC-1 TGI: SRB assay, 48 hours exposure
How it was run: as §1

IGROV-1 = assay: Inhibition of cells growth by colorimetric (SRB) assay, IGROV-1; conditions: for GI50 / CC50: Homo sapiens, IGROV-1, 48 h; for GI50: read-out: IGROV GI50, SRB assay, 48 hours exposure; for CC50: read-out: IGROV LC50, SRB assay, 48 hours exposure; for IGROV TGI: SRB assay, 48 hours exposure
How it was run: as §1

K-562 = assay: Inhibition of cells growth by colorimetric (SRB) assay, K-562; conditions: for GI50 / CC50: Homo sapiens, K562, 48 h; for GI50: read-out: K-562 GI50, SRB assay, 48 hours exposure; for CC50: read-out: K-562 LC50, SRB assay, 48 hours exposure; for K-562 TGI: SRB assay, 48 hours exposure
How it was run: as §1

LoVo = assay: Inhibition of cells growth by colorimetric (SRB) assay, LoVo; conditions: for GI50 / CC50: Homo sapiens, LoVo, 48 h; for GI50: read-out: LOVO GI50, SRB assay, 48 hours exposure; for CC50: read-out: LOVO LC50, SRB assay, 48 hours exposure; for LOVO TGI: SRB assay, 48 hours exposure
How it was run: as §1

HeLa-APL = assay: Inhibition of cells growth by colorimetric (SRB) assay, HeLa-APL; conditions: for GI50 / CC50: Homo sapiens, 48 h; for GI50: read-out: HELA-APL GI50, SRB assay, 48 hours exposure; for CC50: read-out: HELA-APL LC50, SRB assay, 48 hours exposure; for HELA-APL TGI: SRB assay, 48 hours exposure
Excerpt: as §2, §3, §4, §5, §6

[1] = read-out: HT-29 GI50, SRB assay, 48 hours exposure
[2] = read-out: HT-29 LC50, SRB assay, 48 hours exposure
[3] = read-out: A-549 GI50, SRB assay, 48 hours exposure
[4] = read-out: A-549 LC50, SRB assay, 48 hours exposure

CS(=O)(=O)c1nccc(-c2c3cccnc3n3c(N)nccc23)n1 [Compound 73]
GI50 (DU-145): 29.4 µM
CC50 (DU-145): 29.4 µM
DU-145 TGI (DU-145): 2.94E−05
GI50 (HT-29; read-out: GI50 HT-29, SRB assay, 48 hours exposure): ≥ 29.4 µM
GI50 (HT-29; [1]): 14.6 µM
CC50 (HT-29; [2]): 29.4 µM
CC50 (HT-29; read-out: LC50 HT-29, SRB assay, 48 hours exposure): ≥ 147 µM
HT-29 TGI (HT-29; SRB assay, 48 hours exposure): 2.94E−05
TGI HT-29 (HT-29; SRB assay, 48 hours exposure): 1.47E−04
GI50 (A-549; [3]): 11.3 µM
CC50 (A-549; [4]): 29.4 µM
GI50 (A-549; read-out: GI50 A-549, SRB assay, 48 hours exposure): 4.41 µM
CC50 (A-549; read-out: LC50 A-549, SRB assay, 48 hours exposure): ≥ 147 µM
A-549 TGI (A-549; SRB assay, 48 hours exposure): 2.94E−05
TGI A-549 (A-549; SRB assay, 48 hours exposure): 1.47E−04
GI50 (LoVo-Dox): 10.1 µM
CC50 (LoVo-Dox): 29.4 µM
LOVO-DOX TGI (LoVo-Dox): 2.94E−05
GI50 (HeLa): 0.00896 µM
HELA TGI (HeLa): 3.58E−08
GI50 (LNCaP): 4.76 µM
CC50 (LNCaP): 29.4 µM
LN-caP TGI (LNCaP): 1.51E−05
GI50 (IGROV-ET): 2.05 µM
CC50 (IGROV-ET): 29.4 µM
IGROV-ET TGI (IGROV-ET): 2.94E−05
GI50 (SK-MEL-28): 5.46 µM
CC50 (SK-MEL-28): 29.4 µM
MEL-28 TGI (SK-MEL-28): 2.94E−05
GI50 (SK-BR-3): 2.08 µM
CC50 (SK-BR-3): 29.4 µM
SK-BR-3 TGI (SK-BR-3): 9.37E−06
GI50 (PANC-1): 12.3 µM
CC50 (PANC-1): 29.4 µM
PANC-1 TGI (PANC-1): 2.94E−05
GI50 (IGROV-1): 5.41 µM
CC50 (IGROV-1): 29.4 µM
IGROV TGI (IGROV-1): 2.94E−05
GI50 (K-562): 13.7 µM
CC50 (K-562): 29.4 µM
K-562 TGI (K-562): 2.94E−05
GI50 (LoVo): 14.4 µM
CC50 (LoVo): 29.4 µM
LOVO TGI (LoVo): 2.94E−05
GI50 (HeLa-APL): 0.013 µM
CC50 (HeLa-APL): 7.23 µM
HELA-APL TGI (HeLa-APL): 7.23E−08

CSc1nccc(-c2c3cccnc3n3c(N)nccc23)n1.Cl [Compound 68]
GI50 (DU-145): 0.365 µM
CC50 (DU-145): 2.9 µM
DU-145 TGI (DU-145): 1.03E−06
GI50 (HT-29; [1]): 1.14 µM
CC50 (HT-29; [2]): 29 µM
HT-29 TGI (HT-29; SRB assay, 48 hours exposure): 6.93E−06
GI50 (A-549; [3]): 1.29 µM
CC50 (A-549; [4]): 29 µM
A-549 TGI (A-549; SRB assay, 48 hours exposure): 5.10E−06
GI50 (LoVo-Dox): 1.15 µM
CC50 (LoVo-Dox): 29 µM
LOVO-DOX TGI (LoVo-Dox): 2.43E−06
GI50 (HeLa): 0.01 µM
HELA TGI (HeLa): 3.19E−08
GI50 (LNCaP): 0.31 µM
CC50 (LNCaP): 4.41 µM
LN-caP TGI (LNCaP): 1.05E−06
GI50 (IGROV-ET): 2.82 µM
CC50 (IGROV-ET): 29 µM
IGROV-ET TGI (IGROV-ET): 1.44E−05
GI50 (SK-MEL-28): 1.08 µM
CC50 (SK-MEL-28): 14.4 µM
MEL-28 TGI (SK-MEL-28): 4.49E−06
GI50 (SK-BR-3): 0.641 µM
CC50 (SK-BR-3): 16.1 µM
SK-BR-3 TGI (SK-BR-3): 3.42E−06
GI50 (PANC-1): 0.588 µM
CC50 (PANC-1): 29 µM
PANC-1 TGI (PANC-1): 1.15E−05
GI50 (IGROV-1): 1.72 µM
CC50 (IGROV-1): 29 µM
IGROV TGI (IGROV-1): 1.27E−05
GI50 (K-562): 2.51 µM
CC50 (K-562): 29 µM
K-562 TGI (K-562): 1.84E−05
GI50 (LoVo): 0.539 µM
CC50 (LoVo): 2.59 µM
LOVO TGI (LoVo): 1.18E−06
GI50 (HeLa-APL): 0.0103 µM
CC50 (HeLa-APL): 0.655 µM
HELA-APL TGI (HeLa-APL): 5.68E−08
